#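 Results reflect a 48-hour exposure of cells in 96-well plates to compound at five concentrations. Abbreviation: GI50, concentration required for 50% inhibition of growth. TGI marks complete inhibition of growth.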
# Assays:
# Assay in all cases: NCI-60 cell line screen, 48 h
# IGROV1 ovarian = system: IGROV1 ovarian
# M14 melanoma = system: M14 melanoma
# MCF7 breast = system: MCF7 breast
# OVCAR-3 ovarian = system: OVCAR-3 ovarian
# OVCAR-5 ovarian = system: OVCAR-5 ovarian
# SF-268 CNS = system: SF-268 CNS
# SF-539 CNS = system: SF-539 CNS
# SR leukemia = system: SR leukemia
# LOX IMVI melanoma = system: LOX IMVI melanoma
# UACC-257 melanoma = system: UACC-257 melanoma
structure (smiles),measurement,setting,value
COc1ccc(N2C(=O)C3c4[nH]c5ccc(F)cc5c4C4CCC(C(C)(C)C)CC4C3C2=O)cc1 (centres undefined),TGI,IGROV1 ovarian,> 10 µM
same,TGI,M14 melanoma,> 10 µM
same,TGI,MCF7 breast,> 10 µM
same,TGI,OVCAR-3 ovarian,> 10 µM
same,TGI,OVCAR-5 ovarian,> 10 µM
same,TGI,SF-268 CNS,> 10 µM
same,TGI,SF-539 CNS,> 10 µM
same,TGI,SR leukemia,> 10 µM
O=C(NCCNc1nccc(-c2c(-c3cccc(O)c3)nc3sccn23)n1)c1ccccc1,GI50,IGROV1 ovarian,3.61 µM
same,TGI,IGROV1 ovarian,50.9 µM
same,GI50,LOX IMVI melanoma,3.22 µM
same,TGI,LOX IMVI melanoma,17.8 µM
same,GI50,M14 melanoma,0.434 µM
same,TGI,M14 melanoma,12.3 µM
same,GI50,MCF7 breast,3.24 µM
same,TGI,MCF7 breast,14.9 µM
same,GI50,OVCAR-3 ovarian,12.3 µM
same,TGI,OVCAR-3 ovarian,64.8 µM
same,GI50,OVCAR-5 ovarian,18.3 µM
same,TGI,OVCAR-5 ovarian,61.8 µM
same,GI50,SF-268 CNS,15.5 µM
same,TGI,SF-268 CNS,87 µM
same,GI50,SF-539 CNS,11.3 µM
same,TGI,SF-539 CNS,36.8 µM
same,GI50,SR leukemia,5.68 µM
same,TGI,SR leukemia,50 µM
same,GI50,UACC-257 melanoma,0.489 µM
same,TGI,UACC-257 melanoma,18.5 µM
Cc1nc2[nH]ncn2c(=O)c1CCO,TGI,IGROV1 ovarian,> 10 µM
same,TGI,LOX IMVI melanoma,> 10 µM
same,TGI,M14 melanoma,> 10 µM
same,TGI,MCF7 breast,> 10 µM
same,TGI,OVCAR-5 ovarian,> 10 µM
same,TGI,SF-268 CNS,> 10 µM
same,TGI,SF-539 CNS,> 10 µM
same,TGI,SR leukemia,> 10 µM
COc1ccc2c3c([nH]c2c1)CCN(Cc1ccccc1)C3,TGI,IGROV1 ovarian,> 100 µM
same,TGI,LOX IMVI melanoma,38 µM
same,TGI,M14 melanoma,34.8 µM
same,TGI,MCF7 breast,33.8 µM
same,TGI,OVCAR-5 ovarian,69 µM
same,TGI,SF-268 CNS,> 100 µM
same,TGI,SF-539 CNS,32.7 µM
same,TGI,SR leukemia,40.3 µM
same,TGI,UACC-257 melanoma,42.5 µM
CCOC(=O)Cc1cnc(NC(NC(=O)CC)(C(F)(F)F)C(F)(F)F)s1,TGI,LOX IMVI melanoma,> 100 µM
same,TGI,M14 melanoma,> 100 µM
same,TGI,MCF7 breast,> 100 µM
same,TGI,OVCAR-3 ovarian,> 100 µM
same,TGI,OVCAR-5 ovarian,> 100 µM
same,TGI,SF-268 CNS,> 100 µM
same,TGI,SF-539 CNS,> 100 µM
same,TGI,SR leukemia,> 100 µM
same,TGI,UACC-257 melanoma,> 100 µM

# — PubChem BioAssay (NCI)
